According to patent US10501451B2, “Selective NR2B antagonists” (BRISTOL-MYERS SQUIBB COMPANY, priority 2015, dated 2019):
Like-named read-outs stand apart in the source and are kept apart here. Values belong to the molecule of their own block, whether it stands above or below them.

Target: NR2B-subtype NMDA receptors (Rattus norvegicus (Rat), UniProt P35439+Q00960)
Experiment: Radioligand binding assay (3H Ro 25-6981 competition, rat forebrain membranes)
Details: 3H Ro 25-6981 (4 nM)
Description: Radioligand Binding Assay. Binding experiments to determine binding to NR2B-subtype NMDA receptors were performed on forebrains of 8-10 weeks old male Sprague Dawley rats (Harlan, Netherlands) using ^3H Ro 25-6981 (Mutel V; Buchy D; Klingelschmidt A; Messer J; Bleuel Z; Kemp J A; Richards J G. Journal of Neurochemistry, 1998, 70(5):2147-2155. Rats were decapitated without anesthesia using a Guillotine (approved by animal ethics committee) and the harvested brains were snap-frozen and stored at −80° C. for 3-6 months for membrane preparation.
For membrane preparation, rat forebrains were thawed on ice for 20 minutes in homogenization buffer composed of 50 mM KH2PO4 (pH adjusted to 7.4 with KOH), 1 mM EDTA, 0.005% Triton X 100 and protease inhibitor cocktail (Sigma Aldrich). Thawed brains were homogenized using a Dounce homogenizer and centrifuged at 48000×g for 20 min. The pellet was resuspended in cold buffer and homogenized again using a Dounce homogenizer. Subsequently, the homogenate was aliquoted, snap-frozen and stored at −80° C. for not more than 3-4 months.
To perform the competition binding assay, thawed membrane homogenate was added to each well of a 96-well plate (20 μg/well). The experimental compounds were serially diluted in 100% DMSO and added to each row of the assay plate to achieve desired compound concentrations, keeping the DMSO concentration in the assay plate at 1.33% of the final reaction volume. Next, ^3H Ro 25-6981 (4 nM) was added to the assay plate. After incubation for 1 hr at room temperature, the membrane bound radioligand was harvested on to GF/B filter plates (treated with 0.5% PEI for 1 hr at room temperature). The filter plates were dried at 50° C. for 20 mins, incubated with microscint 20 for 10 minutes and finally, the counts were read on TopCount (Perkin Elmer).

NR2B-subtype NMDA receptors, sequence (Q00960 27-1482, other chains not shown): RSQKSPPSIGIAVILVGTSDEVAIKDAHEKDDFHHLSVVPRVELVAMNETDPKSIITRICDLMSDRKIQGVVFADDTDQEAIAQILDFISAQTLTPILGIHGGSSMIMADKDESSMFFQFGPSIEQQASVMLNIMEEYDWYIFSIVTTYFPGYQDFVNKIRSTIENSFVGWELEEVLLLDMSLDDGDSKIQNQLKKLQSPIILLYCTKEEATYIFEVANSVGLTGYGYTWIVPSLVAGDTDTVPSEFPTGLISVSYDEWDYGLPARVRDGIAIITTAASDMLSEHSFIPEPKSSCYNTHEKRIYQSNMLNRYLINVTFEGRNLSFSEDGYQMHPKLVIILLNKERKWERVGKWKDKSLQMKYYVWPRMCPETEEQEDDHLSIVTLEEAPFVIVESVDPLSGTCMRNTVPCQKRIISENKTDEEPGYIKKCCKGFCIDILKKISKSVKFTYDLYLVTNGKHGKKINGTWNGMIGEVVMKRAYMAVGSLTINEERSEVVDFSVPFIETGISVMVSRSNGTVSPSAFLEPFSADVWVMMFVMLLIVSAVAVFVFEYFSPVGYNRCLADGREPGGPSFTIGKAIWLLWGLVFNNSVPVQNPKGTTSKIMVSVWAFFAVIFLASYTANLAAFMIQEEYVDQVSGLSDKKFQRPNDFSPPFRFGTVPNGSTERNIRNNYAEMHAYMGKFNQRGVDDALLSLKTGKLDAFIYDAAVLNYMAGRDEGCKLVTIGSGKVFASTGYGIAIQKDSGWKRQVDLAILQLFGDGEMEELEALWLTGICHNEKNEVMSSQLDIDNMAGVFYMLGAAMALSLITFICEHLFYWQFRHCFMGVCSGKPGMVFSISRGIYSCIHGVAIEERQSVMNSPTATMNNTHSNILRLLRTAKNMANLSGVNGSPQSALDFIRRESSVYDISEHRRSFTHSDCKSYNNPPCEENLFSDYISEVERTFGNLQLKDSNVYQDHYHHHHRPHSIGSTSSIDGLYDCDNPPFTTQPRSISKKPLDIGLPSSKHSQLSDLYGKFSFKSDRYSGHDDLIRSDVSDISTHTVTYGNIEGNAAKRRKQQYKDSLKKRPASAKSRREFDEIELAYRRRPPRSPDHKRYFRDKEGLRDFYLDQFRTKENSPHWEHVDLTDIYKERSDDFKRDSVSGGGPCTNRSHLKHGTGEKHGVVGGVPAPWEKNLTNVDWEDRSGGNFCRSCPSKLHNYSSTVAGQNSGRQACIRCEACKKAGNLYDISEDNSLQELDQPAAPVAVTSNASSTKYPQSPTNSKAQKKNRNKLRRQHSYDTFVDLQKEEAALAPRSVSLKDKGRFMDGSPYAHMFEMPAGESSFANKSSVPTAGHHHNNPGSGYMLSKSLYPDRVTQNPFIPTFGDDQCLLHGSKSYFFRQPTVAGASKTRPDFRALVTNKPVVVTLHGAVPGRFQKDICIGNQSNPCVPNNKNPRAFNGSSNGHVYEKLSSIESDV

Ki (P-1, read-out: NR2B Binding Ki): 305 nM
SMILES: O=C1C(N2CCC(c3ccc(O)cc3)CC2)CON1Cc1ccc(F)cc1 (single isomer, unassigned) [Example 1, P-1, 2-(4-fluorobenzyl)-4-(4-(4-hydroxyphenyl)piperidin-1-yl)isoxazolidin-3-one]

Ki (listed as 1, P-2, read-out: NR2B Binding Ki): 4.08 nM
SMILES: O=C1C(N2CCC(c3ccc(O)cc3)CC2)CON1Cc1ccc(F)cc1 (single isomer, unassigned) [Example 1, P-2, 2-(4-fluorobenzyl)-4-(4-(4-hydroxyphenyl)piperidin-1-yl)isoxazolidin-3-one]

Ki (listed as 2, P-1, read-out: NR2B Binding Ki): 112 nM
SMILES: Cc1ccc(CN2OCC(N3CCC(c4ccc(O)cc4)CC3)C2=O)cc1 (single isomer, unassigned) [Example 2, P-1, 4-(4-(4-hydroxyphenyl)piperidin-1-yl)-2-(4-methylbenzyl)isoxazolidin-3-one]

Ki (listed as 5, P-1, read-out: NR2B Binding Ki): 144 nM
SMILES: Cc1ccc(CN2OCCC(N3CC[C@@H](c4ccc(O)cc4)[C@H](F)C3)C2=O)cc1 (single isomer, unassigned) [Example 5, P-1]

Ki (listed as 5, P-2, read-out: NR2B Binding Ki): 4.37 nM
SMILES: Cc1ccc(CN2OCCC(N3CC[C@@H](c4ccc(O)cc4)[C@H](F)C3)C2=O)cc1 (single isomer, unassigned) [Example 5, P-2]

Ki (listed as 6, P-1, read-out: NR2B Binding Ki): 6.53 nM
SMILES: Cc1ccc(CN2OCCC(N3CCC(c4ccc(O)cn4)CC3)C2=O)cc1 (single isomer, unassigned) [Example 6, P-1, 4-(4-(5-hydroxypyridin-2-yl)piperidin-1-yl)-2-(4-methylbenzyl)-1,2-oxazinan-3-one]

Ki (listed as 6, P-2, read-out: NR2B Binding Ki): 8.16 nM
SMILES: Cc1ccc(CN2OCCC(N3CCC(c4ccc(O)cn4)CC3)C2=O)cc1 (single isomer, unassigned) [Example 6, P-2, 4-(4-(5-hydroxypyridin-2-yl)piperidin-1-yl)-2-(4-methylbenzyl)-1,2-oxazinan-3-one]

Ki (listed as 7, P-1, read-out: NR2B Binding Ki): 125 nM
SMILES: Cc1ccc(CN2OCCC(N3CC[C@H](c4ccc(O)cc4)[C@@H](F)C3)C2=O)cc1 (single isomer, unassigned) [Example 7, P-1]

Ki (listed as 7, P-2, read-out: NR2B Binding Ki): 4.98 nM
SMILES: Cc1ccc(CN2OCCC(N3CC[C@H](c4ccc(O)cc4)[C@@H](F)C3)C2=O)cc1 (single isomer, unassigned) [Example 7, P-2]

Ki (listed as 8, P-1, read-out: NR2B Binding Ki): 57.8 nM
SMILES: Cc1ccc(CN2OCCC(N3CCN(c4ccc(O)cn4)CC3)C2=O)cc1 (single isomer, unassigned) [Example 8, P-1, 4-(4-(5-hydroxypyridin-2-yl)piperazin-1-yl)-2-(4-methylbenzyl)-1,2-oxazinan-3-one]

Ki (listed as 8, P-2, read-out: NR2B Binding Ki): 18.8 nM
SMILES: Cc1ccc(CN2OCCC(N3CCN(c4ccc(O)cn4)CC3)C2=O)cc1 (single isomer, unassigned) [Example 8, P-2, 4-(4-(5-hydroxypyridin-2-yl)piperazin-1-yl)-2-(4-methylbenzyl)-1,2-oxazinan-3-one]

Ki (listed as 9, P-1, read-out: NR2B Binding Ki): 139 nM
SMILES: Cc1ccc(CN2OCC(N3CCC(c4ccc(O)cn4)CC3)C2=O)cc1 (single isomer, unassigned) [Example 9, P-1, 4-(4-(5-hydroxypyridin-2-yl)piperidin-1-yl)-2-(4-methylbenzyl)isoxazolidin-3-one]

Ki (listed as 9, P-2, read-out: NR2B Binding Ki): 12.1 nM
SMILES: Cc1ccc(CN2OCC(N3CCC(c4ccc(O)cn4)CC3)C2=O)cc1 (single isomer, unassigned) [Example 9, P-2, 4-(4-(5-hydroxypyridin-2-yl)piperidin-1-yl)-2-(4-methylbenzyl)isoxazolidin-3-one]

Ki (listed as 10, P-2, read-out: NR2B Binding Ki): 10.7 nM
SMILES: Cc1ccc(CN2OCC(N3CCN(c4ccc(O)cn4)CC3)C2=O)cc1 (single isomer, unassigned) [Example 10, P-2, 4-(4-(5-hydroxypyridin-2-yl)piperazin-1-yl)-2-(4-methylbenzyl)isoxazolidin-3-one]

Ki (listed as 11, P-1, read-out: NR2B Binding Ki): 3.06 nM
SMILES: Cc1ccc(CN2OCCC(N3CCC(c4ccc(O)c(F)c4)C(F)C3)C2=O)cc1 (single isomer, unassigned) [Example 11, P-1, 4-(3-fluoro-4-(3-fluoro-4-hydroxyphenyl)piperidin-1-yl)-2-(4-methylbenzyl)-1,2-oxazinan-3-one]
